Test results published in ChEMBL document CHEMBL1134788, “Oxindole derivatives as orally active potent growth hormone secretagogues” (J Med Chem, 2001).

Species on record: Rattus norvegicus
Test: In vitro growth hormone releasing activity was measured in rat pituitary cells
Type: functional, cell-based
Settings: Pituitary gland cell

Row | SMILES | EC50
1 | CCN(CC)CCN1C(=O)C(O)(c2ccc3ccccc3c2)c2c(Cl)cc(C#CCO)cc21 (centres undefined) | 310 nM
2 | CCN(CC)CCN1C(=O)C(O)(c2ccc3ccccc3c2)c2ccccc21 (centres undefined) | > 1000 nM
3 | CCN(CC)CCN1C(=O)[C@](O)(c2cc3ccccc3cc2Cl)c2c1cc(C(N)=O)cc2C(F)(F)F | 210 nM
4 | CCN(CC)CCN1C(=O)C(O)(c2ccc3ccccc3c2)c2c1cc(C#CCCC(N)=O)cc2C(F)(F)F (centres undefined) | 30 nM
5 | CCN(CC)CCN1C(=O)C(O)(c2ccc3ccccc3c2)c2c1cc(C#CCO)cc2C(F)(F)F (centres undefined) | 310 nM
6 | CCN(CC)CCN1C(=O)C(O)(c2ccc3ccccc3c2)c2c(Br)cccc21 (centres undefined) | 77 nM
7 | CCN(CC)CCN1C(=O)C(O)(c2ccc3ccccc3c2)c2cc(Br)ccc21 (centres undefined) | > 1000 nM
8 | CCN(CC)CCN1C(=O)C(O)(c2ccc3ccccc3c2)c2cccc(Br)c21 (centres undefined) | > 1000 nM
9 | CCN(CC)CCN1C(=O)C(O)(c2cc3ccccc3cc2Cl)c2c1cc(C(N)=O)cc2C(F)(F)F (centres undefined) | 3.5 nM
10 | CCN(CC)CCN1C(=O)C(O)(c2ccc3ccccc3c2)c2ccc(Br)cc21 (centres undefined) | 380 nM
11 | CCN(CC)CCN1C(=O)C(O)(c2ccc3ccccc3c2)c2c(C#CCO)cc(Cl)cc21 (centres undefined) | > 1000 nM
12 | CCN(CC)CCN1C(=O)C(O)(c2ccc3ccccc3c2)c2c1cc(C#CCCC(=O)N1CCOCC1)cc2C(F)(F)F (centres undefined) | 30 nM
13 | CCN(CC)CCN1C(=O)C(O)(c2ccc3ccccc3c2)c2c1cc(C(N)=O)cc2C(F)(F)F (centres undefined) | 18 nM
14 | CCN(CC)CCN1C(=O)[C@@](O)(c2cc3ccccc3cc2Cl)c2c1cc(C(N)=O)cc2C(F)(F)F | 3 nM
